Assay results taken from patent US5208032A, “Increasing the growth of turkeys using implant of 19-nortestosterone” (Rutgers, The State University of New Jersey, priority 1992, dated 1993).

Legend:
[1] = Growth of castrate male turkeys implanted with 19-nortestosterone (Study III, Table V); format: in vivo, Large White Nicholas turkeys; settings: castrated male, 5-cm capsule
Procedure: The same large white strain of turkey (received 1 day posthatching from Nicholas Breeding Farms, CA) was used in all studies. Poults were reared in deep litter brooder pens from 1 day posthatch and exposed to constant light until initiation of Studies I and III or through completion in the case of Study II. Studies I and III were conducted in an environmentally controlled room (photoperiod 12L:12D) with birds housed individually in wire-floored layer cages (space dimensions of 0.31 W×0.46 L×0.53 H meters per cage). Water and feed (Agway Game and Turkey Starter Crumbles) was available at all times. Turkeys were rank ordered by weight and distributed into treatment groups of equal mean body weights at the start of each Study (I, II and III).
Body weight determinations were made at the second and final week of each study, and several organs and tissues were excised and immediately weighed at the time of necropsy. Final shank-toe length, as an indicator of skeletal growth, was also determined. Birds were sacrificed via exanguination by laceration of the jugular vein. Specific details on the experimental design and conduct of each turkey study will follow.
Male and female turkeys were either sham-operated or castrated (Quigley, 1962) at 4 weeks of age in the same manner as previously described for chickens. However, due to the small size and extremely viscous nature of the turkey testicle at 2 weeks of age, birds were castrated at 4 weeks of age. […] This was important since when a portion of the testicle is left behind or dropped back inside the body cavity after having been torn loose, the bird will become what is called in the poultry industry, a "slip".
Pre- (4 weeks) and post-surgically (1 week), birds were floor-reared together on pine shavings. At 5 weeks of age, birds were transferred to individual layer cages (dimensions as in Study I) in an environmentally controlled animal room. One week later (6 weeks of age), birds were assigned to 4 groups (9 birds/group). Group 1 was composed of intact males (sham-operated); Group 2, intact females (sham-operated); Group 3, castrated males implanted that same day with cholesterol-filled Silastic polysiloxane capsules (5.0-cm); and Group 4, castrated males implanted that same day with 19-nortestosterone-filled Silastic polysiloxane capsules (5.0-cm). Castrated males were rank ordered by weight prior to group assignment. Male and female groups were composed of birds which had the intermediate body weights from a pool of 15 birds for each sex. Birds were randomized (planned) into cages among tiers (5 cages per tier) and racks, similar to that of Study I, in order to eliminate any rack (4) or tier (3 vertical) effects within the room. Birds served as individual treatment units for all parameters measured including feed consumption (i.e., supplied with individual box-type feeders) and were placed into every other cage starting on the top tier in rack 1.

5-alpha-DHT anti-serum = assay: Radioimmunoassay for 5-alpha-DHT: antiserum reaction and inhibition of binding; settings: standard curve
Procedure: The following will briefly outline the procedure used for determination of plasma concentration of 5-alpha-DHT. The 5-alpha-DHT anti-serum (Ford's-F/1) was kindly provided by Dr. Alan L. Johnson, Rutgers University, New Brunswick, N.J. This antibody reacted 100% to 5-alpha-DHT,7.9% to testosterone and 11.4% to androstenedione. The antibody was diluted to 1:20,000 in PBSG and stored at 4° C. until added to assay that same day.
5-alpha-Dihydrotestosterone was extracted from plasma ([…]) using benzene:toluene (2:1), with an extraction efficiency of 83.4±6.4 (SD) %. Since further purification of the crude sample extract (i.e., by column chromatography) was not performed, it became necessary to also add extracts from steroid free plasma (i.e., stripped by dextran-coated charcoal) to the standard curve tubes prior to the addition of the different doses of the standard 5-alpha-DHT solutions (3.125 to 1600 pg). […] Following the drying process (Savant-high speed concentrator), 200 microliters 5-alpha-DHT anti-serum solution wwere added to each standard or unknown. After brief vortex mixing, 200 microliters of [1,2,3,7^-3 H] 5-alpha-DHT (^~ 10,000 cpm) was added to each tube and the mixture allowed to incubate overnight at 4° C. The antibody-hormone-bound fraction was separated from the non-bound fraction using a charcoal-dextran suspension. Radioactivity of the bound fraction was measured using a liquid scintillation counter. The percentage bound of the standards was plotted against the log of the hormone concentration to yield a standard curve. Potency estimates of the unknowns were calculated from this standard curve.
Sensitivity of the assay was less than 50.0 pg/ml, while the mean within-assay CV for the low (37.7 pg/ml for plasma stripped and pooled from 3 adult male White Leghorn chickens) and high (265 pg/ml for plasma pooled and not stripped from 3 adult male White Leghorn chickens) plasma pools (n=5) wwas less than 9.4%. The mean between-assay CV for the low and high plasma pools was less than 12.9% (n=7).

[2] = change vs castrated control, unsigned (increase)

SMILES | Abdominal Adipose [1] | Average Daily Gain [1] | Feed/Gain Ratio [1] | Final 9-Week Body Weight [1] | Final 9-Week Shank-Toe Length [1] | Right Breast Muscle [1] | Abdominal Adipose (%) ([1]; change vs castrated control, unsigned (decrease)) | Average Daily Gain (%) [1, 2] | Final 9-Week Body Weight (%) [1, 2] | Right Breast Muscle (%) [1, 2] | Feed Efficiency ([1]; change vs castrated control, column head prints (g), cells %) | 80 percent inhibition of binding (5-alpha-DHT anti-serum; n=7) | Twenty percent inhibition of binding (5-alpha-DHT anti-serum; n=7) | 50 percent inhibition of binding (5-alpha-DHT anti-serum; n=7, 3.125 to 1600 pg)
C[C@]12CC[C@H]3[C@@H](CCC4=CC(=O)CC[C@@H]43)[C@@H]1CC[C@@H]2O [19-Nortestosterone, 19-nortestosterone] | 4.92 ± 0.91 | 106 ± 3 g | 1.86 ± 0.05 | 3643 ± 64 g | 21.44 ± 0.18 cm | 303 ± 13 g | 65.6% | 16.5% | 5.9% | 14.8% | 16.6% | – | – | –
C[C@]12CCC(=O)C[C@@H]1CC[C@@H]1[C@@H]2CC[C@]2(C)[C@@H](O)CC[C@@H]12 [5-alpha-DHT, 5-alpha-dihydrotestosterone] | – | – | – | – | – | – | – | – | – | – | – | 321.4±31.9 pg/tube | 16.9±2.1 pg/tube | 67.4±8.2 pg/tube
